Reference: patent US20230203026A1, “PESTICIDAL COMPOSITIONS AND METHODS” (CORTEVA AGRISCIENCE LLC, priority 2017, published 2023)

Columns and labels:
[1] = tested on: beet armyworm (Spodoptera exigua, LAPHEG) ("BAW"); test: Insecticidal test for beet armyworm, 128-well diet tray assay; assay type: in vivo; conditions: 168 h, 50 μg/cm^2 of test compound on artificial diet, second instar BAW larvae, 25° C., five to seven days, average of eight wells, read-out: BAW % Control (or Mortality) rating
Method: Insecticidal test for beet armyworm (Spodoptera exigua, LAPHEG) (“BAW”)
(§1) Bioassays on beet armyworm (BAW; Spodoptera exigua: Lepidoptera) are conducted using a 128-well diet tray assay. One to five second instar BAW larvae are placed in each well (3 mL) of the diet tray that had been previously filled with 1 mL of artificial diet to which 50 μg/cm^2 of the test compound (dissolved in 50 μL of 90:10 acetone-water mixture) had been applied (to each of eight wells) and then allowed to dry. Trays are covered with a clear self-adhesive cover, vented to allow gas exchange, and held at 25° C., 14:10 light-dark for five to seven days. Percent mortality is recorded for the larvae in each well; activity in the eight wells is then averaged.

[2] = tested on: Cabbage Looper (Trichloplusia ni, TRIPNI) ("CL"); test: Insecticidal test for cabbage looper, 128-well diet tray assay; assay type: in vivo; conditions: Trichoplusia ni, 168 h; 50 μg/cm^2 of test compound on artificial diet; second instar CL larvae; 25° C.; five to seven days; average of eight wells; read-out: CL % Control (or Mortality) rating
Method: Insecticidal Test for Cabbage Looper (Trichloplusia ni, TRIPNI) (“CL”)
as §1, with “cabbage looper (CL; Trichloplusia ni:” for “beet armyworm (BAW; Spodoptera exigua:”, “CL” for “BAW”

SMILES	mortality at 50 µg/cm2 [1]	mortality at 50 µg/cm2 [2]
CC(C)c1ccccc1N1C(=O)CS/C1=N\C(=O)NOC(C)c1ccc(-c2ncn(-c3ccc(OC(F)(F)F)cc3)n2)cc1 (stereo not drawn) [A18, (Z)-1-(3-(2-Isopropylphenyl)-4-oxothiazolidin-2-ylidene)-3-(1-(4-(1-(4-(trifluoromethoxy)phenyl)-1H-1,2,4-triazol-3-yl)phenyl)ethoxy)urea]	50 to 100%	50 to 100%
CCCc1ccc(C)cc1N1C(=O)CS/C1=N\C(=O)NOC(C)c1ccc(-c2ncn(-c3ccc(OC(F)(F)F)cc3)n2)cc1 (stereo not drawn) [A12, (Z)-1-(3-(5-Methyl-2-propylphenyl)-4-oxothiazolidin-2-ylidene)-3-(1-(4-(1-(4-(trifluoromethoxy)phenyl)-1H-1,2,4-triazol-3-yl)phenyl)ethoxy)urea]	50 to 100%	50 to 100%
Cc1ccc(C(C)C)c(N2C(=O)CS/C2=N\C(=O)NOC(C)c2ccc(-c3ncn(-c4ccc(OC(F)(F)C(F)(F)F)cc4)n3)cc2)c1 (stereo not drawn) [A34, (Z)-1-(3-(2-Isopropyl-5-methylphenyl)-4-oxothiazolidin-2-ylidene)-3-(1-(4-(1-(4-(perfluoroethoxy)phenyl)-1H-1,2,4-triazol-3-yl)phenyl)ethoxy)urea]	50 to 100%	50 to 100%
Cc1ccc(Cl)c(N2C(=O)CS/C2=N\C(=O)NOC(C)c2ccc(-c3ncn(-c4ccc(OC(F)(F)F)cc4)n3)cc2)c1 (stereo not drawn) [A11, (Z)-1-(3-(2-Chloro-5-methylphenyl)-4-oxothiazolidin-2-ylidene)-3-(1-(4-(1-(4-(trifluoromethoxy)phenyl)-1H-1,2,4-triazol-3-yl)phenyl)ethoxy)urea]	50 to 100%	50 to 100%
Cc1ccc(C(F)(F)F)c(N2C(=O)CS/C2=N\C(=O)NOC(C)c2ccc(-c3ncn(-c4ccc(OC(F)(F)F)cc4)n3)cc2)c1 (stereo not drawn) [A13, (Z)-1-(3-(5-Methyl-2-(trifluoromethyl)phenyl)-4-oxothiazolidin-2-ylidene)-3-(1-(4-(1-(4-(trifluoromethoxy)phenyl)-1H-1,2,4-triazol-3-yl)phenyl)ethoxy)urea]	50 to 100%	50 to 100%
CCCc1ccc(C)cc1N1C(=O)CS/C1=N\C(=O)NOCc1ccc(-c2ncn(-c3ccc(OC(F)(F)F)cc3)n2)cc1 [A10, (Z)-1-(3-(5-methyl-2-propylphenyl)-4-oxothiazolidin-2-ylidene)-3-((4-(1-(4-(trifluoromethoxy)phenyl)-1H-1,2,4-triazol-3-yl)benzyl)oxy)urea]	50 to 100%	50 to 100%
COCc1ccc(C)cc1N1C(=O)CS/C1=N\C(=O)NOC(C)c1ccc(-c2ncn(-c3ccc(OC(F)(F)F)cc3)n2)cc1 (stereo not drawn) [A16, (Z)-1-(3-(2-(Methoxymethyl)-5-methylphenyl)-4-oxothiazolidin-2-ylidene)-3-(1-(4-(1-(4-(trifluoromethoxy)phenyl)-1H-1,2,4-triazol-3-yl)phenyl)ethoxy)urea]	50 to 100%	50 to 100%
CC(C)c1ccc(Cl)cc1N1C(=O)CS/C1=N\C(=O)NNC(C)c1ccc(-c2ncn(-c3ccc(OC(F)(F)F)cc3)n2)cc1 (stereo not drawn) [A8, (Z)—N-(3-(5-Chloro-2-isopropylphenyl)-4-oxothiazolidin-2-ylidene)-2-(1-(4-(1-(4-(trifluoromethoxy)phenyl)-1H-1,2,4-triazol-3-yl)phenyl)ethyl)hydrazine-1-carboxamide]	50 to 100%	50 to 100%
Cc1ccc(C(C)C)c(N2C(=O)CS/C2=N\C(=O)NN(C)Cc2ccc(-c3ncn(-c4ccc(OC(F)(F)F)cc4)n3)cc2)c1 [A4, (Z)—N-(3-(2-isopropyl-5-methylphenyl)-4-oxothiazolidin-2-ylidene)-2-methyl-2-(4-(1-(4-(trifluoromethoxy)phenyl)-1H-1,2,4-triazol-3-yl)benzyl)hydrazine-1-carboxamide]	50 to 100%	50 to 100%
